Reference: ChEMBL document CHEMBL1149971, “A general approach toward the design of inhibitors of serine proteinases: inhibition of human leukocyte elastase by substituted dihydrouracils” (Bioorg Med Chem Lett, 1992)

Target: T1, Neutrophil elastase (Homo sapiens) (UniProt P08246)
T1 sequence (whole entry): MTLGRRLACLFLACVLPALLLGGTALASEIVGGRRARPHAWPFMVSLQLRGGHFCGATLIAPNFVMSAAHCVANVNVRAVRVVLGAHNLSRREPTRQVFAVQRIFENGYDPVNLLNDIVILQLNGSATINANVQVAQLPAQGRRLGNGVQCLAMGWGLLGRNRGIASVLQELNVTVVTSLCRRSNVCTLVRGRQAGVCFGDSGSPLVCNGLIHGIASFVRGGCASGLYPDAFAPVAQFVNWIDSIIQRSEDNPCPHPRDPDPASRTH
Assay: Bimolecular rate constant for the inhibition of human leukocyte elastase

Bimolecular inhibition rate constant (kobs/[I]) | SMILES
1980 M⁻¹ s⁻¹ | O=C1CC(Cc2ccccc2)NC(=O)N1OS(=O)(=O)/C=C/c1ccccc1 (centres undefined)
3310 M⁻¹ s⁻¹ | CS(=O)(=O)ON1C(=O)NCC(Cc2ccccc2)C1=O (centres undefined)
480 M⁻¹ s⁻¹ | O=C1NCC(Cc2ccccc2)C(=O)N1OS(=O)(=O)/C=C/c1ccccc1 (centres undefined)
800 M⁻¹ s⁻¹ | CS(=O)(=O)ON1C(=O)CC(Cc2ccccc2)NC1=O (centres undefined)
